In patent US20100075965A1, “PI3 KINASE INHIBITORS AND METHODS OF THEIR USE” (Novartis AG, priority 2006, published 2010) one finds IC50 and EC50 data, which are given here for 30 compounds.

In one experiment the target is PI3 K Alpha (Homo sapiens, UniProt P42336). In words: PI3 kinase phosphorylation assays (homogenous solution phase, one step solid phase, ATP depletion/KinaseGlo). It counts as biochemical. The note with it: read-out: PI3K Alpha IC50.
The subject of a further experiment is A2780 cells. The experiment is described as follows: Viability assay in A2780 (Cell Titer Glo). The class given is cell-based, human. The conditions noted are these: Homo sapiens; A2780 cells; read-out: A2780 Cell prolif. EC50. The procedure: Cell viability was assessed with Cell Titer Glo assay, Promega. Cells were seeded in TC treated 96-well plates at a density of 1,000 (A2780 cells) per well in DMEM with 10% FBS, 1% Sodium Pyruvate, and 1% Penicillin Streptomycin for a minimum of 2 hrs prior to addition of compound. Test compounds were serially diluted (3 fold) in DMSO to 500× the final concentration. For each concentration of test compound, 2 μL (500×) aliquots of compound or 100% DMSO (control) were diluted in 500 μL of culture medium to 2× final concentration then diluted 1× on the cells. Cells were incubated for 72 hrs at 37° C., 5% CO2. After which Cell Titer Glo is added to determine viable cells, the assay was performed according to the manufacturer's instruction (Promega Corporation, Madison, Wis. USA). Each experimental condition was performed in duplicate. Raw data was imported in Abase and EC50s calculated with XL-fit data analysis software and are shown in Tables 1 and 2 in the column labeled “A2780 Cell prolif. EC50”.

Sequence of PI3 K Alpha (P42336 whole entry): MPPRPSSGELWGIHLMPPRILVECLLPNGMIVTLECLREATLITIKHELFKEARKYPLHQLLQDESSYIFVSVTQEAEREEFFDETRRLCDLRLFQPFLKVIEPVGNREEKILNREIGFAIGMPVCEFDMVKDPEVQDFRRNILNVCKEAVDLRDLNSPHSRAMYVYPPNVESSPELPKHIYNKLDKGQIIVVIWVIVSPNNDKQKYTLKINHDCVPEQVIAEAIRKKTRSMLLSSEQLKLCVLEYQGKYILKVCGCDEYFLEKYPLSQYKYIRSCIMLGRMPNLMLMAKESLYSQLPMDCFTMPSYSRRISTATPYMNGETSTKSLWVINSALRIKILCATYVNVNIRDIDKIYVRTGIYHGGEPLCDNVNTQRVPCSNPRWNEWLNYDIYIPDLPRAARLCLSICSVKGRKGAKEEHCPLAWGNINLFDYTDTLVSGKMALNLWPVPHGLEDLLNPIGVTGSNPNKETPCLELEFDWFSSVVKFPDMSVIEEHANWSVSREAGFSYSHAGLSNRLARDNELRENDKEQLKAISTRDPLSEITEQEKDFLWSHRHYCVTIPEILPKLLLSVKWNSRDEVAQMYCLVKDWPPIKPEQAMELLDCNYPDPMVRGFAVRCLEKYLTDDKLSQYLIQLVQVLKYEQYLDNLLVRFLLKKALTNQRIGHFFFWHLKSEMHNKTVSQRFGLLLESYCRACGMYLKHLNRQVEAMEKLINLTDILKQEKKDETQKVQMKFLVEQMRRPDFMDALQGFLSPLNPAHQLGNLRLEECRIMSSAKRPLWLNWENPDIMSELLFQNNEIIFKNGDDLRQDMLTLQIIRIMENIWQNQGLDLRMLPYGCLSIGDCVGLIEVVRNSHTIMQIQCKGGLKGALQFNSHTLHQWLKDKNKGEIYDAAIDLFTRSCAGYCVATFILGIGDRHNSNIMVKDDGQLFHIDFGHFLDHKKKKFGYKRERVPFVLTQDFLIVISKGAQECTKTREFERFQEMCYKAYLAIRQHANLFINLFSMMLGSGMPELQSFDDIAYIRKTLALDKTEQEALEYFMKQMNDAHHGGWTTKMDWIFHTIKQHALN
Sequence of PI3 K Alpha (P27986 whole entry partner): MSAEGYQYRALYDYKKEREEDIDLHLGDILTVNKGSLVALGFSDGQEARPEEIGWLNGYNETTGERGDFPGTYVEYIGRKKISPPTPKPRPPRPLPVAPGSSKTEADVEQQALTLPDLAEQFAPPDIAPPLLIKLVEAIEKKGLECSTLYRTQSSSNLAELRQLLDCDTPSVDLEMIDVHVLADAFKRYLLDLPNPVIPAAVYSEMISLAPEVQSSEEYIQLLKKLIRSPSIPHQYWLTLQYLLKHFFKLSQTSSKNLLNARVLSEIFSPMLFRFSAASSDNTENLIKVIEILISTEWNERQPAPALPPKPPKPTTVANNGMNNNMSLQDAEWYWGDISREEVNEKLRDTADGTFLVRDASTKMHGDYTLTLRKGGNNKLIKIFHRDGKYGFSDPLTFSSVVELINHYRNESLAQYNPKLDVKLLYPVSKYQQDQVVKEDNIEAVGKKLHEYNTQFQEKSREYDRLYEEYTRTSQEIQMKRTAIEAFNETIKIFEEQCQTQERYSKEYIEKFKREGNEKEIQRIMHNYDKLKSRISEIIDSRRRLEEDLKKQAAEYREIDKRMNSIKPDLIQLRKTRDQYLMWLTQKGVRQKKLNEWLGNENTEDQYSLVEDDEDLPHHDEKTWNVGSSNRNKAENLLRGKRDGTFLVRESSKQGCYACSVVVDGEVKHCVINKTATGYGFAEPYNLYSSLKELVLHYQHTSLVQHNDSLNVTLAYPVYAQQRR

Consider `CC(=O)Nc1cn2cc(-c3cnc(N)c(C(=O)NCCO)n3)ccc2n1` [Example 147, 6-(2-acetamido-imidazo[1,2-a]pyridin-6-yl)-3-amino-N-(2-hydroxyethyl) pyrazine-2-carboxamide], for which the IC50 on PI3 K Alpha is under 1 µM. The concentration giving a half-maximal response (EC50) with A2780 cells is under 25 µM.
As to `Nc1ncc(-c2ccc3nc(NC(=O)C4CCN4)cn3c2)nc1OCC(F)(F)F` (stereo not drawn) [Example 229, N-(6-(5-amino-6-(2,2,2-trifluoroethoxy)pyrazin-2-yl)imidazo[1,2-a]pyridin-2-yl)azetidine-2-carboxamide], the IC50 on PI3 K Alpha was under 1 µM. Besides, in the experiment on A2780 cells, the EC50 was under 10 µM.
Regarding `NC(=O)N1CCC[C@H]1C(=O)Nc1cn2cc(-c3cnc(N)c(C(F)(F)F)c3)ccc2n1` [Example 46, (S)-N2-(6-(6-amino-5-(trifluoromethyl)pyridin-3-yl)imidazo[1,2-a]pyridin-2-yl)pyrrolidine-1,2-dicarboxamide], the IC50 on PI3 K Alpha is under 10 µM. In addition, the EC50 in the experiment on A2780 cells is under 10 µM.
For the compound `Nc1ncc(-c2ccc3nc(NC(=O)Cc4ccccn4)cn3c2)cc1C(F)(F)F` [Example 52, N-(6-(6-amino-5-(trifluoromethyl)pyridin-3-yl)imidazo[1,2-a]pyridin-2-yl)-2-(pyridin-2-yl)acetamide], at PI3 K Alpha, the IC50 was under 1 µM. Moreover, the EC50 in the experiment on A2780 cells was under 10 µM.
As to `CC(=O)NC1CCN(C(=O)Nc2cn3cc(-c4cnc(N)c(C(F)(F)F)c4)ccc3n2)C1` (stereo not drawn) [Example 146, 3-acetamido-N-(6-(6-amino-5-(trifluoromethyl)pyridin-3-yl)imidazo[1,2-a]pyridin-2-yl)pyrrolidine-1-carboxamide], the IC50 on PI3 K Alpha was under 1 µM. In addition, the 50% effective concentration (EC50) in the experiment with A2780 cells is under 25 µM.
On to `CCN(CC)CCOc1cc(-c2ccc3nc(NC(C)=O)cn3c2)cnc1N` [Example 42, N-(6-(6-amino-5-(2-(diethylamino)ethoxy)pyridin-3-yl)imidazo[1,2-a]pyridin-2-yl)acetamide], for which the IC50 at PI3 K Alpha is under 10 µM. Further, the EC50 in the experiment with A2780 cells is under 25 µM.
Taken in the same sequence, the figures for `CC(=O)Nc1cn2nc(-c3cnc(N)c(C(=O)NCCO)c3)ccc2n1` [Example 140, 5-(2-acetamido-imidazo[1,2-b]pyridazin-6-yl)-2-amino-N-(2-hydroxyethyl) nicotinamide] were under 1 µM and under 25 µM.
On the same counts, the results for `CC(=O)Nc1nc2ccc(-c3cnc(N)c(C(F)(F)F)c3)cn2c1-c1cccc(F)c1` [Example 10, N-[6-(6-Amino-5-trifluoromethyl-pyridin-3-yl)-3-(3-fluoro-phenyl)-imidazo[1,2-a]pyridin-2-yl]-acetamide] are under 1 µM and under 25 µM.
On the same counts, the results for `CCC(=O)Nc1cn2cc(-c3cnc(N)c(C(F)(F)F)c3)ccc2n1` [Example 236, N-(6-(6-amino-5-(trifluoromethyl)pyridin-3-yl)imidazo[1,2-a]pyridin-2-yl)propionamide] are under 1 µM and under 10 µM.
In the case of `CC(=O)Nc1cn2nc(-c3cnc(N)cc3C(F)(F)F)ccc2n1` [Example 24, N-[6-(6-Amino-4-trifluoromethyl-pyridin-3-yl)-imidazo[1,2-b]pyridazin-2-yl]-acetamide], the half-inhibitory concentration (IC50) on PI3 K Alpha is under 1 µM. In addition, in the experiment on A2780 cells, the EC50 was under 25 µM.
On the same counts, the results for `Cc1ccc(C2CCCN2C(=O)Nc2cn3cc(-c4cnc(N)c(C(F)(F)F)c4)ccc3n2)s1` (stereo not drawn) [Example 180, N-(6-(6-amino-5-(trifluoromethyl)pyridin-3-yl)imidazo[1,2-a]pyridin-2-yl)-2-(5-methyithiophen-2-yl)pyrrolidine-1-carboxamide] are under 1 µM and under 25 µM.
Take `Nc1ncc(-c2ccc3nc(NC(=O)CN4CCCCC4)cn3c2)nc1OCC(F)(F)F` [Example 109, N-(6-(5-amino-6-(2,2,2-trifluoroethoxy)pyrazin-2-yl)imidazo[1,2-a]pyridin-2-yl)-2-(piperidin-1-yl)acetamide]: the IC50 at PI3 K Alpha is under 1 µM. The EC50 in the experiment on A2780 cells was under 1 µM.
As to `CC(=O)Nc1cn2nc(-c3cnc(N)c(-c4cccc(C(F)(F)F)c4)c3)ccc2n1` [Example 186, N-(6-(6-amino-5-(3-(trifluoromethyl)phenyl)pyridin-3-yl)imidazo[1,2-b]pyridazin-2-yl)acetamide], at PI3 K Alpha, the IC50 was under 1 µM. Further, the EC50 in the experiment with A2780 cells is under 10 µM.
On the same counts, the results for `CCN(CC)Cc1cc(-c2ccc3nc(NC(C)=O)cn3n2)cnc1N` [Example 240, N-(6-(6-amino-5-((diethylamino)methyl)pyridin-3-yl)imidazo[1,2-b]pyridazin-2-yl)acetamide] are under 1 µM and under 10 µM.
`Nc1ncc(-c2ccc3nc(NC(=O)CN4CCCCC4)cn3c2)cc1C(F)(F)F` [Example 198, N-(6-(6-amino-5-(trifluoromethyl)pyridin-3-yl)imidazo[1,2-a]pyridin-2-yl)-2-(piperidin-1-yl)acetamide]: the IC50 at PI3 K Alpha was under 1 µM. In addition, in the experiment on A2780 cells, the EC50 was under 10 µM.
On the same counts, the results for `CC(=O)Nc1cn2cc(-c3cnc(N)c(OC4CCN(C)CC4)n3)ccc2n1` [Example 40, N-(6-(5-amino-6-(1-methylpiperidin-4-yloxy)pyrazin-2-yl)imidazo[1,2-a]pyridin-2-yl)acetamide] are under 10 µM and under 25 µM.
In the case of `CCN(CC)Cc1cc(-c2ccc3nc(NC(C)=O)cn3c2)cnc1N` [Example 181, N-(6-(6-amino-5-((diethylamino)methyl)pyridin-3-yl)imidazo[1,2-a]pyridin-2-yl)acetamide], the IC50 at PI3 K Alpha is under 1 µM. For the same compound, the EC50 in the experiment with A2780 cells is under 25 µM.
On the same counts, the results for `Nc1ncc(-c2ccc3nc(NC(=O)[C@H]4CCCCN4)cn3c2)cc1C(F)(F)F` [Example 216, (R)-N-(6-(6-amino-5-(trifluoromethyl)pyridin-3-yl)imidazo[1,2-a]pyridin-2-yl)piperidine-2-carboxamide] are under 1 µM and under 10 µM.
On the same counts, the results for `CNC(=O)C1CCN(C(=O)Nc2cn3cc(-c4cnc(N)c(C(F)(F)F)c4)ccc3n2)C1` (stereo not drawn) [Example 154, N1-(6-(6-amino-5-(trifluoromethyl)pyridin-3-yl)imidazo[1,2-a]pyridin-2-yl)-N3-methylpyrrolidine-1,3-dicarboxamide] are under 1 µM and under 25 µM.
Taken in the same sequence, the figures for `CC(C)(C(=O)Nc1cn2cc(-c3cnc(N)c(C(F)(F)F)c3)ccc2n1)c1ccccc1` [Example 44] were under 10 µM and under 25 µM.
In the case of `Nc1ncc(-c2ccc3nc(NC(=O)c4ccncc4)cn3c2)cc1C(F)(F)F` [Example 163], the IC50 on PI3 K Alpha was under 1 µM. Further, the half-maximal effective concentration (EC50) with A2780 cells is under 25 µM.
Taken in the same sequence, the figures for `CC(=O)Nc1nc2ccc(-c3cnc(N)c(Br)c3)cn2c1Br` [Example 15, N-[6-(6-Amino-5-bromo-pyridin-3-yl)-3-bromo-imidazo[1,2-a]pyridin-2-yl]-acetamide] were under 1 µM and under 10 µM.
As for `Nc1ncc(-c2ccc3nc(NC(=O)c4cccc(F)c4)cn3c2)cc1C(F)(F)F` [Example 192, N-(6-(6-amino-5-(trifluoromethyl)pyridin-3-yl)imidazo[1,2-a]pyridin-2-yl)-3-fluorobenzamide], the IC50 on PI3 K Alpha was under 1 µM. Moreover, the EC50 with A2780 cells was under 10 µM.
On the same counts, the results for `Nc1ncc(-c2ccc3nc(NC(=O)c4ccccn4)cn3c2)cc1C(F)(F)F` [Example 177] are under 1 µM and under 25 µM.
On the same counts, the results for `Nc1ncc(-c2ccc3nc(NC(=O)N4CCC[C@H]4CO)cn3c2)cc1C(F)(F)F` [Example 232, (S)-N-(6-(6-amino-5-(trifluoromethyl)pyridin-3-yl)imidazo[1,2-a]pyridin-2-yl)-2-(hydroxymethyl) pyrrolidine-1-carboxamide] are under 1 µM and under 10 µM.
As for `CC(C)(C)OC(=O)NCCC(=O)Nc1cn2nc(-c3cnc(N)c(C(F)(F)F)c3)ccc2n1` [Example 231, tert-butyl 3-(6-(6-amino-5-(trifluoromethyl)pyridin-3-yl)imidazo[1,2-b]pyridazin-2-ylamino)-3-oxopropyl-carbamate], the IC50 at PI3 K Alpha was under 1 µM. The EC50 in the experiment with A2780 cells is under 10 µM.
Take `Nc1ncc(-c2ccc3nc(NC(=O)[C@@H]4CCN4)cn3c2)cc1C(F)(F)F` [Example 228, (S)-N-(6-(6-amino-5-(trifluoromethyl)pyridin-3-yl)imidazo[1,2-a]pyridin-2-yl)azetidine-2-carboxamide]: the IC50 at PI3 K Alpha was under 1 µM. Moreover, in the experiment with A2780 cells, the EC50 is under 10 µM.
Taken in the same sequence, the figures for `C[C@@H](N)C(=O)Nc1cn2nc(-c3cnc(N)c(C(F)(F)F)c3)ccc2n1` [Example 223, (R)-2-amino-N-(6-(6-amino-5-(trifluoromethyl)pyridin-3-yl)imidazo[1,2-b]pyridazin-2-yl)propanamide] were under 1 µM and under 10 µM.
As to `Nc1ncc(-c2ccc3nc(NC(=O)c4cccc(Cl)c4)cn3c2)cc1C(F)(F)F` [Example 225, N-(6-(6-amino-5-(trifluoromethyl)pyridin-3-yl)imidazo[1,2-a]pyridin-2-yl)-3-chlorobenzamide], on PI3 K Alpha, the concentration for half-maximal inhibition (IC50) was under 1 µM. Moreover, the EC50 with A2780 cells was under 10 µM.
Taken in the same sequence, the figures for `CC(=O)Nc1cn2cc(-c3cnc(N)c(N4CCOCC4)n3)ccc2n1` [Example 201, N-(6-(5-amino-6-morpholino-pyrazin-2-yl)imidazo[1,2-a]pyridin-2-yl)acetamide] were under 1 µM and under 10 µM.
